These results are taken from patent US20230355612A1 (SHANGHAI BOCIMED PHARMACEUTICAL CO., LTD., priority 2020, published 2023).

In brackets after ≈: the same amount, converted by molar mass. Where a name gives a salt, the structure may show the parent alone. Read-outs that look alike come from different tables or passages of the source.

The nature of one data set: physchem. The note with it: for solubility at 24 h: 37 °C, thermodynamic from solid. How it is done: The mixtures were shaken at 37° C. for 24 h and filtered through 0.45 μm aqueous-phase filter membranes. The filtrates were collected and the solubility was determined by high performance liquid chromatography. pH3, pH4, pH5 and pH6 represent acetate buffer solutions, and pH7, pH7.4, pH8 and pH9 represent phosphate buffer solutions.

Data set [1] can be described thus: In vitro dissolution simulation experiment, phosphate buffer pH 7.4. It is filed as physicochemical. The note with it: pH 7.4 phosphate buffer, 37° C. Here is the method:
The mixtures were shaken at 37° C.

A short description of data set [2]: Related substances stability of solids under stress conditions (HPLC). In kind it is physicochemical. The note with it: for Total related substances: left to stand under these conditions for 10 days. Here is the method:
(§1) Unless otherwise indicated, the starting materials and reagents in the examples below are either commercially available or prepared by one skilled in the art according to methods known in the art. The salt compounds of the examples were tested by nuclear magnetic resonance (^1H-NMR), X-ray powder diffraction (XRPD), differential scanning calorimetry (DSC), thermogravimetric analysis (TGA), hot-stage polarized light microscopy (PLM) and high performance liquid chromatography (HPLC), and the test parameters are as follows: • (1) The ^1H-NMR measurements were taken on a Bruker Advance III500M nuclear magnetic resonance spectrometer at a frequency of […] with deuterated DMSO as the solvent. • (2) The DSC measurements were taken on a sealed pan device in TA Instruments model Q2000: samples (about 1-2 mg) were weighed in aluminum pans and transferred to the instrument for measurement. The test parameters are as follows: the instrument was equilibrated at 30° C. and heated to 300° C. at a rate of 10° C./min, data was collected, and the experiments were conducted in a nitrogen atmosphere. • (3) The TGA measurements were taken on a TA Instruments model Q500 device: samples (about 2-5 mg) were weighed in aluminum pans and transferred to the instrument for measurement. The test parameters are as follows: the instrument was heated to 350° C. at a rate of 10° C./min, data was collected, and the experiments were conducted in a nitrogen atmosphere. • (4) The XRPD measurements were taken on a Bruker model D8 Advance X-ray powder diffractometer using a round zero background single crystal silicon sample stage. The scan parameters are as follows: voltage, 40 kv; current, 40 mA; scan range, 3-45°; scan increment, 0.02°; scan mode, continuous scan. • (5) The PLM analyses were performed under a model DYP990/TPH350 hot stage polarizing microscope from Shanghai Dian Ying Optical Instruments: a small amount of sample was dispersed in a glass slide and photographed using an eyepiece lens at a magnification of 10× and an objective lens at a magnification of 5-40×. • (6) Methods of measuring HPLC content and detecting related substances: […]

Data set [3] can be described thus: Crystalline form stability of solids under stress conditions (XRPD). In kind it is physicochemical. How it is done: as §1
Data set [4] in a line: Pharmacokinetic experiment in rats (plasma cariprazine, LC-MS/MS). It is filed as in vivo, SD rats.
Protocol: In the whole experiment, the animals from the intramuscular injection group were given ad libitum access to food and water, and those from the oral intragastrical group were fasted overnight before administration and given access to food 4 h after administration.
Plasma sample collection: about 150 μL of blood was collected from the jugular vein (whole blood was centrifuged within 30 min to isolate plasma) and placed in a tube containing anticoagulant EDTA-K2, and after treatment, plasma was stored in a freezer at −70° C. before use.
Pretreatment of plasma sample: to 30 μL of plasma sample was added 200 μL of internal standard solution (40 ng/mL Glipizide acetonitrile solution); the mixture was vortexed for 1 min and centrifuged at 5800 rpm at 4° C. for 10 min; 100 μL of supernatant was transferred to a new plate and 1 μL of solution was taken for LC-MS/MS analysis.
[5] abbreviates: left to stand under these conditions for 10 days.

Regarding `CN(C)C(=O)N[C@H]1CC[C@H](CCN2CCN(c3cccc(Cl)c3Cl)CC2)CC1` [Cariprazine], the solubility at 24 h in the data set “physchem” (pH 8, aqueous buffer) is 1 µg/mL (≈ 2.34 µM); in “physchem” (water) it was around 180 µg/mL (≈ 421 µM).

With `CN(C)C(=O)NC1CCC(CCN2CCN(c3cccc(Cl)c3Cl)CC2)CC1` (centres unmarked) [Amorphous cariprazine embonate, cariprazine embonate], the Concentration is 11940 ng/mL in data set [1] (1 (h)); 10300 ng/mL in data set [1] (3.5 (h)); 9580 ng/mL in data set [1] (5 (h)); 7080 ng/mL in data set [1] (7 (h)); 9900 ng/mL in data set [1] (24 (h)). Moreover, the Increase in impurities result in data set [2] (high-temperature conditions) was “bigger increase in impurities”.

As to `CN(C)C(=O)NC1CCC(CCN2CCN(c3cccc(Cl)c3Cl)CC2)CC1` (centres unmarked) [Crystalline form A of cariprazine embonate], the Concentration is 1000 ng/mL in data set [1] (1 (h)); 3400 ng/mL in data set [1] (3.5 (h)); 4100 ng/mL in data set [1] (5 (h)); 3900 ng/mL in data set [1] (7 (h)); 2500 ng/mL in data set [1] (24 (h)). Moreover, the Crystalline form entry in data set [3] (setting [5]) is “its crystalline form did not change”. Further, the Crystallinity entry in data set [3] (setting [5]) was “did not change significantly”. Besides, in data set [4] (rats, single intramuscular injection 9 mg/kg), the “Length of release among the crystalline forms” value is on record as “best length of release”. Besides, the Total related substances result in data set [2] was “remained substantially unchanged”.

`CN(C)C(=O)NC1CCC(CCN2CCN(c3cccc(Cl)c3Cl)CC2)CC1` (centres unmarked) [Crystalline form G of cariprazine embonate]: the Concentration in data set [1] (1 (h)) is 1300 ng/mL; in data set [1] (3.5 (h)) it was 4510 ng/mL; in data set [1] (5 (h)), 2280 ng/mL; in data set [1] (7 (h)), 1840 ng/mL; in data set [1] (24 (h)), 8050 ng/mL. The Total related substances entry in data set [2] is “remained substantially unchanged”.

For `CN(C)C(=O)N[C@H]1CC[C@H](CCN2CCN(c3cccc(Cl)c3Cl)CC2)CC1` [cariprazine hydrochloride], the solubility at 24 h in the data set “physchem” (pH 3, aqueous buffer) was 12300 µg/mL; in the data set “physchem” (pH 4, aqueous buffer), 9770 µg/mL; in “physchem” (pH 5, aqueous buffer) it was 1080 µg/mL; in “physchem” (water), around 11000 µg/mL.

On to cariprazine malate, for which the Solubility in “physchem” is above 1065.7 µg/mL; in “physchem” (pH 3), above 266.4 µg/mL; in “physchem” (pH 5), above 228.4 µg/mL; in “physchem” (pH 7), below 304.5 µg/mL; in the data set “physchem” (pH 9), below 152.2 µg/mL.

Consider `CN(C)C(=O)NC1CCC(CCN2CCN(c3cccc(Cl)c3Cl)CC2)CC1` (centres unmarked) [cariprazine embonate], for which the Crystalline form result in data set [3] (high-humidity conditions and accelerated conditions) is given as “change into crystalline form A of cariprazine embonate”; in data set [3] (high-temperature conditions and illuminated conditions), “its crystalline form did not change”. In data set [4] (rat, in vivo, po, 0.3 mg/kg), the “Absorption after oral administration” value is reported as “fast absorption”.

For the molecule cariprazine succinate, the Solubility in the data set “physchem” is above 261.2 µg/mL; in “physchem” (pH 3) it was above 215.5 µg/mL; in “physchem” (pH 9) it was below 215.5 µg/mL.

On to `CN(C)C(=O)NC1CCC(CCN2CCN(c3cccc(Cl)c3Cl)CC2)CC1` (centres unmarked) [Crystalline form B of cariprazine embonate], for which the Concentration was 5300 ng/mL in data set [1] (1 (h)); 4000 ng/mL in data set [1] (3.5 (h)); 5200 ng/mL in data set [1] (5 (h)); 2200 ng/mL in data set [1] (7 (h)); 1700 ng/mL in data set [1] (24 (h)). Further, in data set [2], the Total related substances entry is “remained substantially unchanged”.
